From patent US20240277717A1, “APPLICATION OF GANCICLOVIR IN PREPAPRATION OF MEDICINE FOR TREATING ALLERGIC RHINITIS” (Union Hospital, Tongji Medical College, Huazhong University …, priority 2023, published 2024)

Test system: patients with the intractable AR
Test: Interventional non-randomized cohort study of GCV for intractable AR: clinical symptom scores (VAS, ARCT, TNSS)
Format: in vivo, human
Details: for TNSS after GCV treatment / rhinocnesmus score after GCV treatment / sneezing score after GCV treatment / rhinocleisis score after GCV treatment / rhinorrhea score after GCV treatment / ARCT after GCV treatment / VAS after GCV treatment: 14 days; for ARCT after GCV then routine anti-allergic medicines / TNSS after GCV then routine anti-allergic medicines / VAS after GCV then routine anti-allergic medicines / rhinocleisis score after GCV then routine anti-allergic medicines / rhinocnesmus score after GCV then routine anti-allergic medicines / rhinorrhea score after GCV then routine anti-allergic medicines / sneezing score after GCV then routine anti-allergic medicines: then routine anti-allergic medicines 14 days
Description: All patients are recruited from outpatient department of otolaryngology, the patients with AR complain of poor efficacy of routine anti-allergic medicines (nasal glucocorticoid sprays, oral antihistamines, nasal antihistamine sprays and oral leukotriene receptor antagonists). The inclusion and exclusion criteria of recruiting are as follows.
The exclusion criteria: (1) patients have viral/bacterial infection symptoms, fevers and/or other systemic manifestations in the past 2 weeks; (2) patients have other nasal diseases, such as nasal polyps or nasal tumors; (3) patients have a history of nasal surgery in the past 6 months; (4) patients are allergic to the GCV; (5) patients are pregnant women and patients are preparing for pregnancy; (6) the patients have severe neutropenia (absolute neutrophil count<0.5×10^9 per liter) or severe thrombocytopenia (platelet count<2.5×10^10 per liter).
An interventional non-randomized cohort study is conducted. Selected patients are treated with the routine anti-allergic medicines for 2 weeks to exclude the illusion of poor efficacy due to non-standard medication (combined use of nasal spray hormones and oral antihistamines to exclude treatment, and the selected patients are switched to with another brand of similar medicines if the selected patients have previously used the above medicines but no effect).
The selected patients are grouped according to responses to the routine anti-allergic medicines. If the routine anti-allergic medicines treatments are effective, the selected patients are classified as a common AR group; if ineffective, the selected patients are defined as intractable AR patients. The intractable AR patients are treated with the GCV for 2 weeks (oral, 500 milligrams per time (mg/time) twice a day for the patients≥14 years old; 250 mg/time twice a day for the patients<14 years old). If the GCV treatments are ineffective, the patients are classified as a GCV ineffective group; if effective, the patients are classified as GCV effective group. After 2 weeks of the GCV treatment, the patients in the GCV effective group, if total nasal symptom score (TNSS)≥4 or visual analogue scale (VAS)≥3 centimeters (cm) after the GCV treatment, […], conversely, the GCV treatment ends. The nasal symptoms are evaluated at each follow-up. In this situation, nasal secretion smears, nasal secretions, nasal scraping epithelial cells and peripheral blood are collected.
The visual analogue scale (VAS): the severity of all comprehensive symptoms is assessed by the VAS, ranging from 0 (no symptoms) to 10 centimeters (most severe and imaginable symptoms). Allergic rhinitis and its impact on asthma (ARIA) 2008 guideline classification: “mild” AR=0-3 centimeters, “moderate” AR=3.1-7 centimeters, “severe” AR=7.1-10 centimeters.
Allergic rhinitis control test (ARCT) is a self-administered questionnaire on AR control verified by Demoly et al. It consists of five questions with a score of 1-5 points for each question scored and a total score of 5-25 points. The intractable AR is defined as patients with ARCT score<20 points after 2 weeks of treatment.
Nasal symptom score: rhinocleisis, rhinocnesmus, sneezing, rhinorrhea are scored separately. No symptoms=0; mild (mild symptoms, easy to tolerate)=1; moderate (obvious symptoms, annoying, but tolerable)=2; severe (symptoms are not tolerable, affecting daily life or sleep)=3. The total nasal symptom score (TNSS) is the sum of all nasal symptom scores, ranging from 0 to 12.

[1] = Case 1, GCV 250 mg/time twice a day, before 1
[2] = Case 1, GCV 250 mg/time twice a day, before 3
[3] = Case 2, GCV 500 mg/time twice a day, before 2
[4] = Case 2, GCV 500 mg/time twice a day, before 7
[5] = Case 2, GCV 14 days, then nasal spray hormone plus oral antihistamines 14 days
[6] = Case 3, GCV 250 mg/time twice a day, before 3
[7] = Case 4, GCV 500 mg/time twice a day, before 1
[8] = Case 5, GCV 500 mg/time twice a day, before 3

Structure (SMILES): Nc1nc(O)c2ncn(COC(CO)CO)c2n1 [GCV, Ganciclovir]
- TNSS after GCV treatment (Case 1 (person one), GCV 250 mg/time twice a day, before 8): 3 points
- rhinocnesmus score after GCV treatment [1]: 1 points
- sneezing score after GCV treatment [1]: 0 points
- rhinocleisis score after GCV treatment [2]: 1 points
- rhinorrhea score after GCV treatment [2]: 1 points
- ARCT after GCV treatment (Case 1, GCV 250 mg/time twice a day, before 5): 21 points
- VAS after GCV treatment (Case 1, GCV 250 mg/time twice a day, before 8): 4.5 cm
- ARCT after GCV then routine anti-allergic medicines (Case 1, GCV 14 days): 24 points
- TNSS after GCV then routine anti-allergic medicines (Case 1, GCV 14 days): 2 points
- VAS after GCV then routine anti-allergic medicines (Case 1, GCV 14 days): 2.5 cm
- rhinocleisis score after GCV then routine anti-allergic medicines (Case 1, GCV 14 days): 1 points
- rhinocnesmus score after GCV then routine anti-allergic medicines (Case 1, GCV 14 days): 0 points
- rhinorrhea score after GCV then routine anti-allergic medicines (Case 1, GCV 14 days): 1 points
- sneezing score after GCV then routine anti-allergic medicines (Case 1, GCV 14 days): 0 points
- rhinocleisis score after GCV treatment [3]: 2 points
- rhinocnesmus score after GCV treatment [3]: 2 points
- rhinorrhea score after GCV treatment [3]: 0 points
- sneezing score after GCV treatment [3]: 0 points
- ARCT after GCV treatment [4]: 20 points
- VAS after GCV treatment [4]: 4 cm
- TNSS after GCV treatment (Case 2, GCV 500 mg/time twice a day, before 8): 4 points
- ARCT after GCV then anti-allergic medicines [5]: 25 points
- TNSS after GCV then anti-allergic medicines [5]: 1 point
- VAS after GCV then anti-allergic medicines [5]: 2 cm
- rhinocleisis score after GCV then anti-allergic medicines [5]: 1 point
- rhinocnesmus score after GCV then anti-allergic medicines [5]: 0 point
- rhinorrhea score after GCV then anti-allergic medicines [5]: 0 point
- sneezing score after GCV then anti-allergic medicines [5]: 0 point
- rhinocleisis score after GCV treatment [6]: 2 points
- rhinocnesmus score after GCV treatment [6]: 1 points
- rhinorrhea score after GCV treatment [6]: 3 points
- sneezing score after GCV treatment [6]: 3 points
- ARCT after GCV treatment (Case 3, GCV 250 mg/time twice a day, before 5): 22 points
- VAS after GCV treatment (Case 3, GCV 250 mg/time twice a day, before 10): 5 cm
- TNSS after GCV treatment (Case 3, GCV 250 mg/time twice a day, before 12): 9 points
- ARCT after GCV then routine anti-allergic medicines (Case 3, GCV 14 days): 25 points
- TNSS after GCV then routine anti-allergic medicines (Case 3, GCV 14 days): 3 points
- VAS after GCV then routine anti-allergic medicines (Case 3, GCV 14 days): 2.5 cm
- rhinocleisis score after GCV then routine anti-allergic medicines (Case 3, GCV 14 days): 1 point
- rhinocnesmus score after GCV then routine anti-allergic medicines (Case 3, GCV 14 days): 0 point
- rhinorrhea score after GCV then routine anti-allergic medicines (Case 3, GCV 14 days): 1 point
- sneezing score after GCV then routine anti-allergic medicines (Case 3, GCV 14 days): 1 point
- ARCT after GCV treatment (Case 4, GCV 500 mg/time twice a day): 24 points
- rhinocnesmus score after GCV treatment [7]: 0 point
- sneezing score after GCV treatment [7]: 0 point
- rhinorrhea score after GCV treatment (Case 4, GCV 500 mg/time twice a day, before 2): 1 point
- rhinocleisis score after GCV treatment (Case 4, GCV 500 mg/time twice a day, before 3): 1 point
- TNSS after GCV treatment (Case 4, GCV 500 mg/time twice a day, before 7): 2 points
- VAS after GCV treatment (Case 4, GCV 500 mg/time twice a day, before 9): 1.5 cm
- nasal symptoms after GCV then nasal spray hormone (Case 4, GCV 14 days, then 7 days of the nasal spray hormone): disappear completely
- rhinocnesmus score after GCV treatment (Case 5, GCV 500 mg/time twice a day, before 0): 0 point
- rhinorrhea score after GCV treatment (Case 5, GCV 500 mg/time twice a day, before 1): 1 point
- rhinocleisis score after GCV treatment [8]: 1 point
- sneezing score after GCV treatment [8]: 0 point
- ARCT after GCV treatment (Case 5, GCV 500 mg/time twice a day, before 5): 24 points
- TNSS after GCV treatment (Case 5, GCV 500 mg/time twice a day, before 7): 2 points
- VAS after GCV treatment (Case 5, GCV 500 mg/time twice a day, before 10): 2.2 cm
- nasal symptom (rhinocleisis, rhinocnesmus, sneezing, rhinorrhea) scores before and after GCV treatment (FIG. 2) (GCV effective group): significantly improved
- ARCT, VAS and TNSS scores during diagnosis and treatment (FIGS. 1A-1C) (GCV effective group n=26, after 2 weeks GCV): significantly ameliorates the nasal symptoms
- nasal symptoms after re-treatment with previously ineffective anti-allergic medicines following GCV (n=15 with TNSS≥4 or VAS≥3 cm after 2 weeks GCV, then anti-allergic medicines 2 weeks): could further reduce the nasal symptoms
- intractable AR patients ineffective after the GCV treatment (oral GCV 2 weeks, 14/40, ineffective = ARCT<20): 35%
